Measurements from patent publication US20110081428A1, “Use of thioflavin-like compounds to increase life span and/or health span” (priority 2009, published 2011).

Tests used:
Type in all cases: in vivo, Caenorhabditis elegans
[1] = tested on: CL4176 (Aβ3-42 expressed in muscle); experiment: Worm paralysis assay, Aβ model; conditions: CL4176, 25° C.; 50 μM ThT, 100 μM curcumin
Experimental: (§1) Scoring for paralysis was initiated 2 and 8 days after temperature upshift for CL4176 and AM140, respectively. […] For sensitivity to EtOH or levamisole resistance, CW152 gas-1 (fc21) X and ZZ26 unc-63(x26)I worms were picked into 0.4 M EtOH or 50 μM levamisole, respectively, equilibrated for 5 min, and scored for paralysis as described above. Treated and untreated worms were compared with an unpaired t-test (implemented in Prism 4, Graphpad™ Software, Inc., San Diego, Calif., USA).

[2] = tested on: AM140 (rmIs132[P(unc-54) Q35::YFP]); experiment: Worm paralysis assay, polyQ model; conditions: AM140, 25° C., 8 days; 50 μM ThT, 100 μM curcumin
Experimental: as §1

[3] = tested on: HE250 [unc-52(e669su250)II]; experiment: Worm paralysis assay, unc-52 ts mutant; conditions: HE250, 25° C., 36 h; 50 μM ThT, 100 μM curcumin, 100 μM rifampicin
Experimental: as §1

[4] = tested on: DAF-16 fusion protein [TJ356 daf-16::daf-16-gfp]; experiment: DAF-16::GFP localization; conditions: ThT or curcumin treatment, no heat shock
Experimental: For fluorescent microscopy, TJ356 zIs356 IV [daf-16::daf-16-gfp+rol-6] or CF2189 Is001(skn-1::gfp+rol-6) were paralyzed with 1 mM levamisole mounted on 1% agarose pads and imaged using Olympus BX51 (60× objective) and HCImage software (Hamamatsu). For immunofluorescence, N2, […], CB1157 unc-54(e1157) or CL4176 dvIs27 [myo-3::Aβ(3 to 42)-let 3′UTR(pAF29); pRF4 (rol-6(su1006))] worms were treated for 24-36 h with or without 50 μM ThT at 25° C. After this period the worms were collected, rinsed, and fixed in 4% paraformaldehyde overnight. […] Paramyosin and perlecans were detected with primary monoclonal antibodies 5-23 and MH3 (developed by Henry Epstein and Robert H. Waterston and obtained from the Developmental Studies Hybridoma Bank developed under the auspices of the NICHD and maintained by The University of Iowa, Department of Biology, Iowa City, Iowa 52242) and AlexaFluor 633 goat anti-mouse (Molecular Probes) as secondary antibody. Soluble oligomers and Aβ peptide were detected with anti polyclonal All (Invitrogen) and 6E10 monoclonal (Covance) primary antibodies, respectively, with AlexaFluor 568 goat anti-rabbit and AlexaFluor 488 goat anti-mouse (Molecular Probes) as secondary antibodies. Images were processed and quantified by using Image Analyst MK II (Novato, Calif.).

HSP-16.2 = experiment: Western blot HSP-16.2; conditions: 50 μM ThT, 100 μM curcumin, 4 and 7 days of treatment
Experimental: Peptide corresponding to amino acids 110-145 ([…]; SEQ ID NO:1) of HSP-16.2 was used to commercially synthesize antiserum (Invitrogen). Briefly, KLH-peptide was emulsified by mixing with an equal volume of Freund's adjuvant and injected into three subcutaneous dorsal sites for a total of 0.1 mg of peptide for immunization. The animals (rabbits) were bled, the blood allowed to clot and the serum collected by centrifugation. Monoclonal HSP-70 and Polyclonal HSF-1 primary antibodies were from stressgen (N27F3-4 and SPA-901, respectively).
Worms were transferred to siliconized eppendorf tubes, washed once in S-basal and frozen in liquid N2. Standard SDS-PAGE was performed using (4-12%) NOVEX gels and IVIES running buffer. Following transfer PVDF (BioRad) membranes were incubated with antisera (1:10000) or primary antibodies (1:1000) diluted in blocking buffer and then with secondary, goat anti-rabbit IgG antibody/horseradish peroxidase conjugate (Pierce), diluted 1:25000. Detection was undertaken with chemiluminescent reagents (SuperSignal, Pierce) and standard autoradiography.

`COc1cc(/C=C/C(=O)CC(=O)/C=C/c2ccc(O)c(OC)c2)ccc1O` [curcumin, reference compound] was tested, and the “proportion of paralyzed worms” value [1] was “significantly decrease the proportion of paralyzed worms”, the “proportion of paralyzed worms” value [2] was “significantly decrease the proportion of paralyzed worms” and the “paralysis phenotype of unc-52 mutant” value [3] was “Protection”. For the same compound, the “DAF-16::GFP localization” value [4] was “does not produce DAF-16::GFP relocalization” and the HSP-16.2 protein levels (HSP-16.2) was “increase the HSP-16.2 levels”.
